Source: US9682031B2, “Microcapsules comprising benzoyl peroxide and topical compositions comprising them” (Tagra Biotechnologies Ltd., priority 2009, dated 2017)

Experiments:
Type in all cases: physicochemical
[1] = Congo red oxidation sensitivity / qualitative diffusion test; conditions: microcapsules = sample 2 (PMMA-BPO); 4% (w/w) BPO free or encapsulated, BPO/congo red 30:1, 50-55° C.
Procedure: Azo-dye congo red was used as a model for oxidation-sensitive component, the ratio BPO/congo red=30:1(w/w).
Three comparative systems were utilized: • 1—BPO microcapsules (sample 2) • 2—free BPO • 3—without BPO (blank)
For the preparation of (1) and (2), 9 g (ml) aqueous dispersion containing 4% (w/w) BPO (free or encapsulated) were suspended with 0.1% Tween™ 20 (polysorbate 20) and 9 g liquid vehicle and stirred in a 25 ml beaker with a magnetic stirrer. Following a mixing period of 30 minutes, the temperature of the system was raised to 50-55° C. and 1 ml of a 1% aqueous solution of congo red were added. The blank system (3) was prepared by stirring 9 ml 0.1% Tween™ 20 and 9 g liquid vehicle, and adding 1 ml of a 1% aqueous solution of congo red. After stirring the suspension for 1 minute, pictures of the three systems were taken.

[2] = Chemical stability of BPO in gel containing 1% free retinol, 40° C., 30 days (HPLC); conditions: encapsulated = sample 21; gel with 1% free retinol, 5% BPO, 30 days storage at 40° C.
Procedure: HPLC was used for BPO analysis following storage at 40° C. (encapsulated BPO vs. free BPO in a gel formulation containing 1% free retinol).

[3] = Chemical stability of BPO in aqueous gel formulation, 40° C., 90 days (HPLC); conditions: 5% BPO, 90 days at 40° C. (FIG. 21)
Procedure: Geogard (0.7 g, Lonza) was dissolved in water by heating to 40-50° C. and the solution was allowed to cool to room temperature. Clindamycin phosphate was optionally dissolved in the solution (in formulations comprising antibiotics). Xanthan gum (1 g, Interaxion) was slowly added under medium mixing until the xanthan gum gel was formed. BPO microcapsules were then added to the gel by simple mixing. The composition of the gel formulation is detailed in Table 8 below.
BPO microcapsules were incorporated into the gel formulation (gel base comprising no clindamycin) at final BPO concentration of 5% and incubated at 40° C. over 90 days. Stability studies were performed for compositions comprising only encapsulated BPO or encapsulated BPO in combination with 0.75-1% of Clindamycin Phosphate. BPO concentration was determined immediately after incorporation into gel formulation and after 30, 60 and 90 days. Total concentration of BPO was determined by mixing 1 gr of the gel formulation with dichloromethane/methanollacetonitrile solution. BPO concentration in water phase was determined after separation of microcapsules from gel by centrifugation. The water phase was mixed with dichloromethane/methanol/acetonitrile solution in order to extract BPO and its content was determined using HPLC.

O=C(OOC(=O)c1ccccc1)c1ccccc1 [free BPO, benzoyl peroxide]
color of congo red solution [1]: changed its color from red to yellow
relative content of BPO from the initial concentration [2]: 36%
decrease in the concentration of BPO [3]: negligible decrease
